From the NIST ThermoML archive (doi:10.1021/je030130y)
Numbers after ± are expanded uncertainties.

Experiments:
[1] = 101.3 kPa, Liquid; for viscosity: Capillary tube (Ostwald / Ubbelohde) method; for mass density: Pycnometric method
[2] = xn = mol fraction of the nth substance listed; details: 101.3 kPa, Liquid; for viscosity: Capillary tube (Ostwald / Ubbelohde) method; for mass density: Pycnometric method

**Q.** Which viscosity ([1]; 298.15 K) does the source give for `c1ccccc1` [benzene] here?
**A.** 0.603 ± 0.006 mPa·s

**Q.** What about the mass density ([1]; 298.15 K) of the same molecule?
**A.** 873.4 ± 0.5 kg/m3

**Q.** What about the viscosity ([1]; 303.15 K) of the same molecule?
**A.** 0.568 ± 0.005 mPa·s

**Q.** And the mass density ([1]; 303.15 K)?
**A.** 868.2 ± 0.5 kg/m3

**Q.** And the viscosity ([1]; 308.15 K)?
**A.** 0.531 ± 0.005 mPa·s

**Q.** And the mass density ([1]; 308.15 K)?
**A.** 862.9 ± 0.5 kg/m3

**Q.** And the viscosity ([1]; 313.15 K)?
**A.** 0.5 ± 0.005 mPa·s

**Q.** And the mass density ([1]; 313.15 K)?
**A.** 857.4 ± 0.5 kg/m3

**Q.** With `c1ccccc1` [benzene] + CN(C)C=O as the molecule, how does the viscosity ([2]; 298.15 K, x2 = 0) read?
**A.** 0.603 ± 0.006 mPa·s

**Q.** What about the mass density ([2]; 298.15 K, x2 = 0) of the same molecule?
**A.** 873.4 ± 0.5 kg/m3

**Q.** What about the viscosity ([2]; 303.15 K, x2 = 0) of the same molecule?
**A.** 0.568 ± 0.005 mPa·s

**Q.** And the mass density ([2]; 303.15 K, x2 = 0)?
**A.** 868.2 ± 0.5 kg/m3

**Q.** And the viscosity ([2]; 308.15 K, x2 = 0)?
**A.** 0.531 ± 0.005 mPa·s

**Q.** And the mass density ([2]; 308.15 K, x2 = 0)?
**A.** 862.9 ± 0.5 kg/m3

**Q.** What about the viscosity ([2]; 313.15 K, x2 = 0) of the same molecule?
**A.** 0.5 ± 0.005 mPa·s

**Q.** What about the mass density ([2]; 313.15 K, x2 = 0) of the same molecule?
**A.** 857.4 ± 0.5 kg/m3

**Q.** For `c1ccccc1` [benzene] + Clc1ccccc1, which viscosity ([2]; 298.15 K, x1 = 1) is on record?
**A.** 0.603 ± 0.006 mPa·s

**Q.** And the mass density ([2]; 298.15 K, x1 = 1)?
**A.** 873.4 ± 0.5 kg/m3

**Q.** What about the viscosity ([2]; 303.15 K, x1 = 1) of the same molecule?
**A.** 0.568 ± 0.005 mPa·s

**Q.** What about the mass density ([2]; 303.15 K, x1 = 1) of the same molecule?
**A.** 868.2 ± 0.5 kg/m3

**Q.** What about the viscosity ([2]; 308.15 K, x1 = 1) of the same molecule?
**A.** 0.531 ± 0.005 mPa·s

**Q.** And the mass density ([2]; 308.15 K, x1 = 1)?
**A.** 862.9 ± 0.5 kg/m3

**Q.** What about the viscosity ([2]; 313.15 K, x1 = 1) of the same molecule?
**A.** 0.5 ± 0.005 mPa·s

**Q.** What about the mass density ([2]; 313.15 K, x1 = 1) of the same molecule?
**A.** 857.4 ± 0.5 kg/m3

**Q.** Which results are given for `Clc1ccccc1` [chlorobenzene]?
**A.** viscosity ([1]; 298.15 K): 0.756 ± 0.006 mPa·s; mass density ([1]; 298.15 K): 1100.9 ± 0.4 kg/m3; viscosity ([1]; 303.15 K): 0.714 ± 0.006 mPa·s; mass density ([1]; 303.15 K): 1095.8 ± 0.4 kg/m3; viscosity ([1]; 308.15 K): 0.673 ± 0.005 mPa·s; mass density ([1]; 308.15 K): 1090.8 ± 0.4 kg/m3; viscosity ([1]; 313.15 K): 0.635 ± 0.005 mPa·s; mass density ([1]; 313.15 K): 1085.1 ± 0.4 kg/m3

**Q.** For `CN(C)C=O` [dimethylformamide], which viscosity ([1]; 298.15 K) is on record?
**A.** 0.803 ± 0.006 mPa·s

**Q.** And the mass density ([1]; 298.15 K)?
**A.** 944.5 ± 0.3 kg/m3

**Q.** What about the viscosity ([1]; 303.15 K) of the same molecule?
**A.** 0.756 ± 0.006 mPa·s

**Q.** What about the mass density ([1]; 303.15 K) of the same molecule?
**A.** 939.8 ± 0.3 kg/m3

**Q.** What about the viscosity ([1]; 308.15 K) of the same molecule?
**A.** 0.71 ± 0.005 mPa·s

**Q.** And the mass density ([1]; 308.15 K)?
**A.** 935.1 ± 0.3 kg/m3

**Q.** And the viscosity ([1]; 313.15 K)?
**A.** 0.673 ± 0.005 mPa·s

**Q.** What about the mass density ([1]; 313.15 K) of the same molecule?
**A.** 930.2 ± 0.4 kg/m3

**Q.** For `CN(C)C=O` [dimethylformamide] + Clc1ccccc1, which viscosity ([2]; 298.15 K, x1 = 1) is on record?
**A.** 0.803 ± 0.006 mPa·s

**Q.** What about the mass density ([2]; 298.15 K, x1 = 1) of the same molecule?
**A.** 944.5 ± 0.3 kg/m3

**Q.** What about the viscosity ([2]; 303.15 K, x1 = 1) of the same molecule?
**A.** 0.756 ± 0.006 mPa·s

**Q.** And the mass density ([2]; 303.15 K, x1 = 1)?
**A.** 939.8 ± 0.3 kg/m3

**Q.** And the viscosity ([2]; 308.15 K, x1 = 1)?
**A.** 0.71 ± 0.005 mPa·s

**Q.** And the mass density ([2]; 308.15 K, x1 = 1)?
**A.** 935.1 ± 0.3 kg/m3

**Q.** And the viscosity ([2]; 313.15 K, x1 = 1)?
**A.** 0.673 ± 0.005 mPa·s

**Q.** And the mass density ([2]; 313.15 K, x1 = 1)?
**A.** 930.2 ± 0.4 kg/m3
